Measured values taken from patent US8435538B2, “Anti-atheroma vaccine” (Thrombosis Research Institute, priority 2008, dated 2013).
Values joined by “and” are separate entries in the source; they are usually repeats but may differ in a detail not shown here. Identical values can stand only once. Ends that are not written are not given here.

Experiments:
[1] = system: Apob^tm2Sgy Ldlr^tm1Her/J KO-mice; test: RIMMS immunization, serum IgG titre by ELISA, KO-mouse model; type: in vivo; conditions: titre = highest serum dilution giving OD (450 nm) ≧1
Method: The ability of the recombinant immunogens to generate an immune response in BALB/C mice models, C57/BL6 mice models and Apob^tm2Sgy Ldlr^tm1Her/J KO-mice models. Mice were immunized using a repetitive, multiple site immunization strategy (RIMMS). Groups of 10 of 6-8-week-old BALB/c mice were inoculated with 4 μg of recombinant immunogen mixed with Freund's adjuvant 5 times respectively. The immunization was carried out subcutaneously into 8 sites on days 0, 2, 5, 7 and 9. On day 12 and 21 blood sample will be collected to test the antibody response. […]
Serum samples of immunized and naïve mice were tested for IgG antibodies using OD values at a dilution of 1:100 (or 200) on ELISA plates coated with antigens. Cut-off value for positivity was calculated as mean OD of naïve mouse sera+3×SD. Serum samples showing higher OD on antigen than on control antigen are considered positive, the other is determined by the highest dilution of serum giving an OD reading (at 450 nm)≧1. In this regard, titre can be assessed as non-immunoreactivity (<200), low immunoreactivity (200≦titre<800), good immunoreactivity (800≦titre<3200) and very good immunoreactivity ((titre 3200)

ApoB1 peptide = test: Peptide-specific antibody response in sera by ELISA after immunization with KLH conjugates, antigen ApoB1 peptide; type: in vivo, mice
Excerpt: (§1) Apob^tm2SgyLdlr^tm1Her/J mice were immunized with combinations of ApoB and hHSP epitopes conjugated to keyhole limpet hemocyanin (KLH) as a carrier protein. The peptides were given either in combination, as a bi-specific immunogen, or in a single form, together with complete/incomplete Freund's adjuvant. Mice were fed with high-fat diet for 7 weeks then sacrificed. Peptide-specific antibody responses were detected in the sera by ELISA.

[2] = system: macrophages (CD68+ cells); test: Infiltration of macrophages into atherosclerotic lesions, anti-CD68 staining; type: in vivo; conditions: compared with mice immunized with either HSP60 or apoB1 alone; FIG. 6
Excerpt: Infiltration of macrophages into atherosclerotic lesions in the Apob^tm2SgyLdlr^tm1Her/J mice were quantified by staining with anti-CD68. Sections of the tissue sample (5 μm thick) were stained with hematoxylin-eosin (H.E.) and examined under a light microscope. Macrophage levels were compared in a sample obtained from mice immunized with adjuvant only (control), mice immunized with ApoB only, mice immunized with hHSP60 only and mice immunized with the bi-specific ApoB1+hHSP60 immunogen.

[3] = system: Apob^tm2SgyLdlr^tm1Her/J mice; test: Histological analysis of atherosclerotic lesions in the aortic sinus of immunized mice; type: in vivo
Excerpt: LDL receptor-deficient mice expressing ApoB-100 were immunized with a combination of two peptides derived from ApoB1 ([…], SEQ ID NO:25) and hHSP60 (AELKKQSKPVT, SEQ ID NO:26).
as §1
The lesions were 14.66% smaller following immunization with ApoB1 peptide alone (FIG. 5B), and 21.15% smaller after immunization with hHSP60 peptide alone (FIG. 5C) than in control mice.

hHSP60 peptide = test: Peptide-specific antibody response in sera by ELISA after immunization with KLH conjugates, antigen hHSP60 peptide; type: in vivo, mice
Excerpt: as §1

Substance: ApoB1 + hHSP60-KLH: combination of ApoB1 and hHSP60 peptides conjugated to KLH, bi-specific immunogen (chain 1 IEIGLEGKGFEPTLEALFGK; chain 2 AELKKQSKPVT; also: peptides conjugated to KLH; listed as Homo sapiens)
- Immune response on KO- mouse model [1]: Very Good (very good immunoreactivity ((titre 3200))
- OD at 1:100 serum dilution, ELISA antigen ApoB1 peptide, Mean (ApoB1 peptide; Week 8, group mean): 1.333
- OD at 1:100 serum dilution, ELISA antigen ApoB1 peptide (ApoB1 peptide; Week 8, individual mouse): 1.227 and 1.546 and 1.449 and 1.437 and 1.142 and 1.229 and 1.303
- number of macrophages (CD68+ cells) found within lesions of atherosclerosis [2]: fewer
- protection from progression of atherosclerotic lesion ([3]; LDL receptor-deficient mice expressing ApoB-100): synergistic protection
- atherosclerotic lesions in the aortic sinus smaller in size than in control mice ([3]; vs adjuvant control, high-fat diet for 7 weeks): 41.34%
- OD at 1:100 serum dilution, ELISA antigen hHSP60 peptide, Mean (hHSP60 peptide; Week 8, group mean): 1.366
- OD at 1:100 serum dilution, ELISA antigen hHSP60 peptide (hHSP60 peptide; Week 8, individual mouse): 1.368 and 1.405 and 1.556 and 1.282 and 1.215 and 1.338 and 1.396
